Results from ChEMBL document CHEMBL4371037, “5-Substituted-N-pyridazinylbenzamides as potent and selective LRRK2 inhibitors: Improved brain unbound fraction enables efficacy” (Bioorg Med Chem Lett, 2019).

Legend:
[1] = Lipophilicity, log D of the compound at pH 7.4 by chromatographic method; type: physicochemical; conditions: buffer
[2] = Intrinsic clearance in human liver microsomes; type: ADME, Microsome
[3] = Drug level in naive rat kidney at 5 mg/kg, iv administered as bolus dose followed by 5 ml/kg/hr iv infusion for 4 hrs; type: ADME, organism-based; conditions: read-out: Drug uptake
[4] = Brain to blood partition coefficient, Kp of the compound in naive rat at 5 mg/kg, iv administered as bolus dose followed by 5 ml/kg/hr iv infusion for 4 hrs; type: ADME, organism-based
[5] = Drug level in naive rat brain at 5 mg/kg, iv administered as bolus dose followed by 5 ml/kg/hr iv infusion for 4 hrs; type: ADME, organism-based; conditions: read-out: Drug uptake
[6] = Drug level in naive rat blood at 5 mg/kg, iv administered as bolus dose followed by 5 ml/kg/hr iv infusion for 4 hrs; type: ADME, organism-based; conditions: read-out: Drug uptake
[7] = Unbound brain-to-plasma concentration ratio in naive rat at 5 mg/kg, iv administered as bolus dose followed by 5 ml/kg/hr iv infusion for 4 hrs; type: ADME, organism-based; conditions: read-out: K(p,uu,brain)
[8] = Drug level in naive rat spleen at 5 mg/kg, iv administered as bolus dose followed by 5 ml/kg/hr iv infusion for 4 hrs; type: ADME, organism-based; conditions: read-out: Drug uptake

Row | SMILES | chromatographic logD [1] | CLH [2] | further results
1 | O=C(Nc1cccnc1)c1cc(C(F)(F)F)ccc1OCc1ccc(F)cc1 | 6.3 | – | –
2 | C[C@@H]1COCCN1c1ccc(OCc2ccccc2)c(C(=O)Nc2ccnnc2)c1 | 4.5 | – | –
3 | O=C(Nc1cccc(Cl)c1)c1cc(C(F)(F)F)ccc1OCc1ccccc1 | 8.8 | – | –
4 | COCCN1CCN(c2ccc(OCc3ccccc3)c(C(=O)Nc3ccnnc3)c2)CC1 | 3.8 | 1.3 mL/min/g | –
5 | O=C(Nc1cccc(F)c1)c1cc(C(F)(F)F)ccc1OCc1ccc(F)cc1 | 8.2 | – | –
6 | O=C(Nc1cccnc1)c1cc(C(F)(F)F)ccc1OCc1ccccc1 | 6.3 | – | –
7 | COCCN1CCC(c2ccc(OCc3ccccc3)c(C(=O)Nc3ccnnc3)c2)CC1 | 2.9 | < 0.78 mL/min/g | –
8 | N#Cc1cccc(NC(=O)c2cc(C(F)(F)F)ccc2OCc2ccc(F)cc2)c1 | 7.5 | – | –
9 | O=C(Nc1ccnnc1)c1cc(C(F)(F)F)ccc1OCc1ccccc1 | 5.4 | – | –
10 | O=C(Nc1cccc(Cl)c1)c1cc(C(F)(F)F)ccc1OCc1ccc(F)cc1 | 8.7 | – | –
11 | C[C@@H]1CN(c2ccc(OCc3ccccc3)c(C(=O)Nc3ccnnc3)c2)C[C@H](C)O1 | 5.4 | 2.2 mL/min/g | –

Second part, led by results:

Row | chromatographic logD [1] | CLH [2] | SMILES | further results
12 | 3 | 1.6 mL/min/g | CN1CCN(c2ccc(OCc3ccccc3)c(C(=O)Nc3ccnnc3)c2)CC1 | –
13 | 6.3 | – | O=C(Nc1ccnnc1)c1cc(N2CCCCC2)ccc1OCc1ccccc1 | –
14 | 6.1 | 9.8 mL/min/g | O=C(Nc1ccnnc1)c1cc(N2CCCC2)ccc1OCc1ccccc1 | –
15 | 3.2 | 0.6 mL/min/g | O=C(Nc1ccnnc1)c1cc(N2CCC(O)CC2)ccc1OCc1ccccc1 | –
16 | 5.1 | 9.5 mL/min/g | O=C(Nc1ccnnc1)c1cc(N2CC(F)(F)C2)ccc1OCc1ccccc1 | –
17 | 4.1 | 2.1 mL/min/g | O=C(Nc1ccnnc1)c1cc(N2CCOCC2)ccc1OCc1ccccc1 | concentration at 4 h [3]: 3970 ng/g; Kp at 4 h [4]: 1.44; concentration at 4 h [5]: 1630 ng/g; concentration at 4 h [6]: 1130 ng/mL; Kp uu at 4 h [7]: 0.51; concentration at 4 h [8]: 1680 ng/g
18 | 4.4 | 11.8 mL/min/g | O=C(Nc1ccnnc1)c1cc(N2CC(F)C2)ccc1OCc1ccccc1 | –
19 | 2.3 | – | CN1CCC(c2ccc(OCc3ccccc3)c(C(=O)Nc3ccnnc3)c2)CC1 | –
20 | 4.5 | 5.5 mL/min/g | N#CC1CCN(c2ccc(OCc3ccccc3)c(C(=O)Nc3ccnnc3)c2)CC1 | –
21 | 4.5 | 4.3 mL/min/g | O=C(Nc1ccnnc1)c1cc(N2C[C@H]3COC[C@H]3C2)ccc1OCc1ccccc1 | –
22 | 2 | – | CN1CC2(C1)CN(c1ccc(OCc3ccccc3)c(C(=O)Nc3ccnnc3)c1)C2 | –
23 | 1.9 | 0.4 mL/min/g | O=C(Nc1ccnnc1)c1cc(N2CCNCC2)ccc1OCc1ccccc1 | –
24 | 5.1 | 5.5 mL/min/g | O=C(Nc1ccnnc1)c1cc(N2CCC(F)CC2)ccc1OCc1ccccc1 | –
25 | 3.5 | 1 mL/min/g | O=C(Nc1ccnnc1)c1cc(N2CCC(CO)CC2)ccc1OCc1ccccc1 | –
26 | 2.2 | – | CN1CC2(CCN(c3ccc(OCc4ccccc4)c(C(=O)Nc4ccnnc4)c3)CC2)C1 | –
